Legend:
[1] = test system: T1, arginine amidinohydrolase; assay: coupled urease / glutamate dehydrogenase assay, NADH oxidation at […] nm; type: biochemical, Teladorsagia circumcincta; settings: L3 homogenate, 100 mM phosphate buffer, 30 °C, no metal added; read-out: apparent K m
T1 construct: native enzyme in crude homogenate of L3 larvae, not purified

[2] = test system: T2, creatine amidinohydrolase; assay: as above; type: biochemical, Teladorsagia circumcincta; settings: L3 homogenate, 100 mM phosphate buffer, 30 °C, no metal added; read-out: apparent K m
T2 construct: native activity in crude homogenate of L3 larvae, not purified; no nematode gene homologue found by the authors

Row | Structure (SMILES) | Km [1] | Km [2]
1 | N=C(N)NCCC[C@H](N)C(=O)O [arginine] | 700 ± 200 µM | –
2 | CN(CC(=O)O)C(=N)N [creatine] | – | 1100 ± 100 µM
